Our source for the MIC and Activity values is ChEMBL document CHEMBL1649206, “Emerging Klebsiella pneumoniae isolates coproducing KPC-2 and VIM-1 carbapenemases” (2009).

Assay [1] relates to Klebsiella pneumoniae. Nature of the assay: Antimicrobial activity against Klebsiella pneumoniae isolate H-1406 expressing VIM-1 and KPC-2 genes by microdilution method. Format: functional.
The test system of assay [2] is Klebsiella pneumoniae. Nature of the assay: Antimicrobial activity against Klebsiella pneumoniae isolate A-1797 expressing VIM-1 and KPC-2 genes by microdilution method. Type of assay: functional. In general terms: Dilution methods test growth across graded concentrations, often in twofold steps.
For assay [3], the system named is Klebsiella pneumoniae. Nature of the assay: Antimicrobial activity against Klebsiella pneumoniae isolate T-1780 expressing VIM-1 and KPC-2 genes by microdilution method. Format: functional.
Assay [4] has as its system Klebsiella pneumoniae. Nature of the assay: Antimicrobial activity against Klebsiella pneumoniae isolate A-1760 expressing VIM-1 and KPC-2 genes by microdilution method. Format: functional.
For assay [5], the system named is Klebsiella pneumoniae. Nature of the assay: Antimicrobial activity against Klebsiella pneumoniae isolate T-1504 expressing VIM-1 and KPC-2 genes by microdilution method. Type of assay: functional.
The target in assay [6] is Metallo-beta-lactamase (Klebsiella pneumoniae) (UniProt Q5GN09). Nature of the assay: Activity of VIM-1 in Klebsiella pneumoniae isolate H-1406.
The target is the same in assay [7]. Nature of the assay: Activity of VIM-1 in Klebsiella pneumoniae isolate A-1797.
Assay [8] shares this target. Nature of the assay: Activity of VIM-1 in Klebsiella pneumoniae isolate T-1780.
Assay [9] has the same target. Nature of the assay: Activity of VIM-1 in Klebsiella pneumoniae isolate A-1760.
In assay [10] the target is Carbapenem-hydrolyzing beta-lactamase KPC (Klebsiella pneumoniae) (UniProt Q9F663). Nature of the assay: Activity of KPC-2 in Klebsiella pneumoniae isolate T-1504.
Sequence of Carbapenem-hydrolyzing beta-lactamase KPC (Klebsiella pneumoniae) (Q9F663 whole entry): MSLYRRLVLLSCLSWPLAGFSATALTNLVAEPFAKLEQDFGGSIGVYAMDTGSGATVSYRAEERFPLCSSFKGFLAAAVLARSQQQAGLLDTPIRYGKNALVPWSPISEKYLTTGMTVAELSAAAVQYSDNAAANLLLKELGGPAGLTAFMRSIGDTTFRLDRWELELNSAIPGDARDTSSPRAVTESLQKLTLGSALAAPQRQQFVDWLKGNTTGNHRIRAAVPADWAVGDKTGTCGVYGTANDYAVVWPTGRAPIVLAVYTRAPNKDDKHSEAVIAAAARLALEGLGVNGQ
The target is the same in assay [11]. Nature of the assay: Activity of KPC-2 in Klebsiella pneumoniae isolate H-1406.
For assay [12] the target is unchanged. Nature of the assay: Activity of KPC-2 in Klebsiella pneumoniae isolate T-1780.
Assay [13] concerns the target Metallo-beta-lactamase (Klebsiella pneumoniae) (UniProt Q5GN09). Nature of the assay: Activity of VIM-1 in Klebsiella pneumoniae isolate H-1406 assessed as compound hydrolysis in presence of EDTA. More on the design: scale not given: the % may be the effect or the level left.
Assay [14] shares this target. Nature of the assay: Activity of VIM-1 in Klebsiella pneumoniae isolate A-1797 assessed as compound hydrolysis in presence of EDTA. More on the design: scale not given: the % may be the effect or the level left.
Assay [15] has the same target. Nature of the assay: Activity of VIM-1 in Klebsiella pneumoniae isolate T-1780 assessed as compound hydrolysis in presence of EDTA. Also noted: scale not given: the % may be the effect or the level left.
Assay [16] has the same target. Nature of the assay: Activity of VIM-1 in Klebsiella pneumoniae isolate A-1760 assessed as compound hydrolysis in presence of EDTA. Also noted: scale not given: the % may be the effect or the level left.
Assay [17] deals with Carbapenem-hydrolyzing beta-lactamase KPC (Klebsiella pneumoniae) (UniProt Q9F663). Nature of the assay: Activity of KPC-2 in Klebsiella pneumoniae isolate T-1504 assessed as compound hydrolysis in presence of EDTA. Also noted: scale not given: the % may be the effect or the level left.
Assay [18] shares this target. Nature of the assay: Activity of KPC-2 in Klebsiella pneumoniae isolate H-1406 assessed as compound hydrolysis in presence of EDTA. More on the design: scale not given: the % may be the effect or the level left.
Assay [19] shares this target. Nature of the assay: Activity of KPC-2 in Klebsiella pneumoniae isolate T-1780 assessed as compound hydrolysis in presence of EDTA. More on the design: scale not given: the % may be the effect or the level left.
Assay [20] relates to Klebsiella pneumoniae. Nature of the assay: Antimicrobial activity against Klebsiella pneumoniae isolate H-1406 expressing VIM-1 and KPC-2 genes by microdilution method in presence of beta-lactamase inhibitor Tazobactam. Format: functional.
For assay [21], the system named is Klebsiella pneumoniae. Nature of the assay: Antimicrobial activity against Klebsiella pneumoniae isolate A-1797 expressing VIM-1 and KPC-2 genes by microdilution method in presence of beta-lactamase inhibitor Tazobactam. Type of assay: functional.
Assay [22] deals with Klebsiella pneumoniae. Nature of the assay: Antimicrobial activity against Klebsiella pneumoniae isolate T-1780 expressing VIM-1 and KPC-2 genes by microdilution method in presence of beta-lactamase inhibitor Tazobactam. Type of assay: functional.
Assay [23] concerns Klebsiella pneumoniae. Nature of the assay: Antimicrobial activity against Klebsiella pneumoniae isolate A-1760 expressing VIM-1 and KPC-2 genes by microdilution method in presence of beta-lactamase inhibitor Tazobactam. Type of assay: functional.
The test system of assay [24] is Klebsiella pneumoniae. Nature of the assay: Antimicrobial activity against Klebsiella pneumoniae isolate T-1504 expressing VIM-1 and KPC-2 genes by microdilution method in presence of beta-lactamase inhibitor Tazobactam. Type of assay: functional.
Assay [25] relates to Klebsiella pneumoniae. Nature of the assay: Antimicrobial activity against Klebsiella pneumoniae isolate H-1406 expressing VIM-1 and KPC-2 genes by microdilution method in presence of beta-lactamase inhibitor clavulanic acid. Type of assay: functional.
Assay [26] relates to Klebsiella pneumoniae. Nature of the assay: Antimicrobial activity against Klebsiella pneumoniae isolate A-1797 expressing VIM-1 and KPC-2 genes by microdilution method in presence of beta-lactamase inhibitor clavulanic acid. Type of assay: functional.
Assay [27] has as its system Klebsiella pneumoniae. Nature of the assay: Antimicrobial activity against Klebsiella pneumoniae isolate T-1780 expressing VIM-1 and KPC-2 genes by microdilution method in presence of beta-lactamase inhibitor clavulanic acid. Type of assay: functional.
The test system of assay [28] is Klebsiella pneumoniae. Nature of the assay: Antimicrobial activity against Klebsiella pneumoniae isolate A-1760 expressing VIM-1 and KPC-2 genes by microdilution method in presence of beta-lactamase inhibitor clavulanic acid. Format: functional.
Assay [29] concerns Klebsiella pneumoniae. Nature of the assay: Antimicrobial activity against Klebsiella pneumoniae isolate T-1504 expressing VIM-1 and KPC-2 genes by microdilution method in presence of beta-lactamase inhibitor clavulanic acid. Format: functional.

SMILES strings stand for the structures. In brackets after ≈: the same amount, converted by molar mass.

By MIC is commonly meant the least concentration at which growth counts as inhibited. `C[C@@H](O)[C@H]1C(=O)N2C(C(=O)O)=C(S[C@@H]3CN[C@H](C(=O)Nc4cccc(C(=O)O)c4)C3)[C@H](C)[C@H]12`: the MIC was 64 µg/mL (≈ 135 µM) in assay [1]; 8 µg/mL (≈ 16.8 µM) in [2]; > 128 µg/mL in assay [3]; 64 µg/mL (≈ 135 µM) in [4]; 32 µg/mL (≈ 67.3 µM) in assay [5].
As for `C[C@H]1[C@H](NC(=O)/C(=N\OC(C)(C)C(=O)O)c2csc(N)n2)C(=O)N1S(=O)(=O)O` [AZTREONAM], the minimal inhibitory concentration (MIC) in [1] stood at 64 µg/mL (≈ 147 µM); in [2] it was 64 µg/mL (≈ 147 µM); in assay [3] it was 64 µg/mL (≈ 147 µM); in assay [4], 0.12 µg/mL (≈ 0.276 µM); in assay [5] it was 32 µg/mL (≈ 73.5 µM).
`CC(C)(O/N=C(\C(=O)N[C@@H]1C(=O)N2C(C(=O)[O-])=C(C[n+]3ccccc3)CS[C@H]12)c1csc(N)n1)C(=O)O` [CEFTAZIDIME]: the MIC in [1] was > 256 µg/mL; in assay [2], > 256 µg/mL; in assay [3], > 256 µg/mL; in assay [4], > 256 µg/mL; in [5] it was 16 µg/mL (≈ 29.3 µM).
Consider `C[C@@H](O)[C@H]1C(=O)N2C(C(=O)O)=C(SCCNC=N)C[C@H]12` [IMIPENEM ANHYDROUS], for which the MIC in [1] is 32 µg/mL (≈ 107 µM); in [2], 2 µg/mL (≈ 6.68 µM); in [3] it was 32 µg/mL (≈ 107 µM); in assay [4], 32 µg/mL (≈ 107 µM); in assay [5] it was 2 µg/mL (≈ 6.68 µM).
Regarding `CO/N=C(\C(=O)N[C@@H]1C(=O)N2C(C(=O)O)=C(COC(C)=O)CS[C@H]12)c1csc(N)n1` [CEFOTAXIME], the MIC in assay [1] is 256 µg/mL (≈ 562 µM); in assay [2] it was > 256 µg/mL; in [3], > 256 µg/mL; in assay [4] it was > 256 µg/mL; in [5] it was 8 µg/mL (≈ 17.6 µM).
For the molecule `C[C@@H](O)[C@H]1C(=O)N2C(C(=O)O)=C(S[C@@H]3CN[C@H](C(=O)N(C)C)C3)[C@H](C)[C@H]12` [MEROPENEM], the MIC in assay [1] was 8 µg/mL (≈ 20.9 µM); in assay [2] it was 2 µg/mL (≈ 5.22 µM); in [3], 64 µg/mL (≈ 167 µM); in assay [4] it was 64 µg/mL (≈ 167 µM). The Activity in [6] came to 55 U; in assay [7] it was 42 U; in assay [8], 76 U; in [9] it was 80 U; in [10] it was 31 U; in [11], 55 U. Besides, the Activity in assay [12] was 76 U; in [13] it was 57%; in assay [14], 80%; in assay [15], 64%; in assay [16], 100%; in [17] it was < 2%. In addition, the Activity in [18] was found to be 57%; in [19] it was 64%.
Consider `CCN1CCN(C(=O)N[C@@H](C(=O)N[C@@H]2C(=O)N3[C@@H]2SC(C)(C)[C@@H]3C(=O)O)c2ccccc2)C(=O)C1=O` [PIPERACILLIN], for which the MIC in assay [3] was > 256 µg/mL; in assay [5], 128 µg/mL (≈ 247 µM); in [20], > 256 µg/mL; in [21] it was > 256 µg/mL; in assay [22], > 256 µg/mL; in [23], > 256 µg/mL. Besides, the MIC in [24] came to 64 µg/mL.
`CO/N=C(\C(=O)N[C@@H]1C(=O)N2C(C(=O)[O-])=C(C[N+]3(C)CCCC3)CS[C@H]12)c1csc(N)n1`: the MIC in assay [1] is 128 µg/mL (≈ 266 µM); in assay [2] it was 16 µg/mL (≈ 33.3 µM); in assay [3], > 256 µg/mL; in assay [4], 256 µg/mL (≈ 533 µM); in assay [5] it was 16 µg/mL (≈ 33.3 µM).
`CC1(C)S[C@@H]2[C@H](NC(=O)[C@H](C(=O)O)c3ccsc3)C(=O)N2[C@H]1C(=O)O` [TICARCILLIN]: the minimum inhibitory concentration (MIC) in [1] was > 256 µg/mL; in assay [3] it was > 256 µg/mL; in assay [5], 256 µg/mL (≈ 666 µM); in [25] it was 256 µg/mL; in assay [26], > 256 µg/mL; in assay [27] it was > 256 µg/mL. Besides, the MIC in [28] is > 256 µg/mL; in assay [29], 8 µg/mL.
